Laboratory results from BigSolDB 2.1.

NCC1(CC(=O)O)CCCCC1
solubility (mole fraction)
Details	283.15 K	288.15 K	293.15 K	298.15 K	303.15 K	308.15 K	313.15 K	318.15 K	323.15 K
in ethanol	0.00134	0.00153	0.0017	0.00187	0.00224	0.00243	0.00267	0.003	0.00329
in methanol	0.00718	0.00795	0.00878	0.00943	0.0107	0.0117	0.0127	0.014	0.016

NCC1(CC(=O)O)CCCCC1.O
in water
Details	solubility (mole fraction)
283.15 K	0.0093
288.15 K	0.0106
293.15 K	0.0116
298.15 K	0.0124
303.15 K	0.0137
308.15 K	0.0152
313.15 K	0.0168
318.15 K	0.0189
323.15 K	0.0222
